Data set [1] in a line: physical stability (t½ induction) at 40° C./75% RH. The class given is physicochemical.
Data set [2] can be described thus: glass temperature of the compound. Format: physicochemical.
Another data set is described as follows: log pow. Format: physicochemical. As to conditions: octanol/water.
A short description of data set [3]: hydrolytic stability (t½) at 20° C. Format: physicochemical. As to conditions: buffer.
The next data set is described as follows: water solubility (glass). Format: physicochemical.

For `CC(=O)OC1C(O[C@@H]2OC(COC(=O)C3O[C@H](OC(C)=O)C(OC(C)=O)C(OC(C)=O)[C@@H]3OC(C)=O)[C@@H](OC(C)=O)C(OC(C)=O)C2OC(C)=O)OC(COC(=O)C2O[C@H](OC(C)=O)C(OC(C)=O)C(OC(C)=O)[C@H]2OC(C)=O)[C@@H](OC(C)=O)C1OC(C)=O` (stereo partly drawn) [Example 1, di(β-tetraacetylglucuronyl)hexaacetyltrehalose], the melting point stood at 156 °C. For the same compound, in data set [1], the “physical stability (t½ induction)” value is >1176 h. For the same compound, the glass temperature in data set [2] is 110 °C. This compound had a log partition coefficient (logP) in “log pow” of 2.9. Besides, the half-life in data set [3] (pH 4) is 12 h. For the same compound, the half-life in data set [3] (pH 7) is 14 h. Besides, the half-life in data set [3] (pH 9) is < 1 h. Moreover, in “water solubility (glass)”, the “water solubility (glass)” value is 9.5 ppm.

(Values after patent US7220731B2, “Derivatised carbohydrates and their use in solid delivery systems” (Elan Drug Delivery Limited, priority 2000, dated 2007).)
